In paper PMC6892276 (European Journal of Pharmaceutical Sciences, 2019):

Key:
[1] = design: method as in Bavetsias et al., 2012; details: rat; ref Bavetsias et al., 2012; cited from earlier work
Caco-2 = tested on: Caco-2; design: method as in Bavetsias et al., 2012; details: ref Bavetsias et al., 2012, cited from earlier work
[2] = CLint in cryopreserved minipig hepatocyte suspensions; format: in vitro ADME; details: Gottingen
Method: (§1) Cells were stored in the vapour phase of liquid nitrogen and thawed as per the supplier's instructions (rapid thawing at 37 °C, followed by centrifugation at 50 ×g for 5 min in thawing medium). Hepatocytes were re-suspended in a small volume of incubation medium (WME buffered with HEPES (final concentration 24 mM) adjusted to pH 7.4). Cell density was estimated using a haemocytometer and light microscope and viability determined according to the trypan blue exclusion method; cells were subsequently diluted to the required concentration in incubation medium. […]
(§2) For the purpose of CLint determination, samples were analysed using an Agilent 1290 Infinity ultra high-performance liquid chromatography (UHPLC) system coupled to an Agilent 6520 Quadrupole Time-of-flight mass spectrometer (Agilent Technologies, Stockport, UK). […]
(§3) In vitro data (parent compound LC-MS response) was fitted to a non-linear single exponential model using the software GraphPad Prism (v6.07, GraphPad Software, Inc., La Jolla, USA) to determine the elimination rate constant (k). CLint in hepatocytes and liver microsomes was calculated using Eqs. […]

[3] = Protein binding in HLM (Rapid Equilibrium Dialysis); format: in vitro ADME; details: human, liver microsomes, HLM 1 mg/ml, dialysis 4 h at 37 °C, read-out: fumic (fraction unbound in microsomes)
Method: (§4) Samples were removed, matrix matched and quenched with methanol containing internal standard; further processing is as described in Section 2.6.
(§5) The fraction unbound (fu) in HLM/rCYP was calculated using Eq. (5).(5) fu=1/1+1/PARreceiver/PARdonor−1 where PAR = Peak Area Ratio of analyte/internal standard.

CYP3A4 = tested on: CYP3A4; design: method as in Bavetsias et al., 2012; details: ref Bavetsias et al., 2012; read-out: CYP3A4 inhibition IC50; cited from earlier work
[4] = tested on: histone H-3 and STAT5 phosphorylation; design: method as in Bavetsias et al., 2012; details: p.o. 50 and 100 mg/kg b.i.d., 4-day mouse PK/PD study; ref Bavetsias et al., 2012; cited from earlier work
CYP2C9 = tested on: CYP2C9; design: method as in Bavetsias et al., 2012; details: ref Bavetsias et al., 2012; read-out: CYP2C9 inhibition IC50; cited from earlier work
CYP1A2 = tested on: CYP1A2; design: method as in Bavetsias et al., 2012; details: ref Bavetsias et al., 2012; read-out: CYP1A2 inhibition IC50; cited from earlier work
[5] = Protein binding in rCYP (Rapid Equilibrium Dialysis); format: in vitro ADME; details: human, control rCYP 100 pmol/ml, dialysis 4 h at 37 °C, read-out: fuCYP (fraction unbound in rCYP)
Method: as §4, §5

CYP2D6 = tested on: CYP2D6; design: method as in Bavetsias et al., 2012; details: ref Bavetsias et al., 2012; read-out: CYP2D6 inhibition IC50; cited from earlier work
rCYP3A4 = assay: Reaction phenotyping using recombinant CYP, CLint in rCYP3A4; format: in vitro ADME, human; details: scaled with ISEF 1.09 and CYP abundance 137 pmol P450/mg; corrected for fuCYP
Method: All incubations of subcellular fractions and recombinant enzymes were conducted at 37 °C and 800 rpm using a Hamilton Microlab Star liquid handling workstation (Hamilton Robotics (Bonaduz, Switzerland)).
Recombinant CYP (100 pmol P450/ml) and control bactosome (at an equivalent protein concentration) were prepared in 100 mM KPB. […] The reaction was initiated by the addition of NADPH (final concentration 1 mM) and allowed to proceed for 20 min. At T0 (see Section 2.4.1), 0.5, 5, 10, 15 and 20 min, an aliquot was removed from each incubation and quenched in ice cold methanol containing internal standard.
CLint in rCYP was calculated using Eq. (3) and scaled to μl/min/mg microsomal protein using Eq. (4).(3) CLintμl/min/pmolP450=V·k/pmol protein (4) CLintμl/min/mgmicrosomal protein=CLintμl/min/pmolP450·ISEF·CYPabundance where ISEF is the Intersystem Extrapolation Factor and CYP abundance is amount of each CYP relative to microsomal protein. For rCYP3A4 an ISEF of 1.09 ([Certara, 2017]) and a CYP abundance of 137 pmol P450/mg microsomal protein ([Certara, 2017]) were used.
Unbound CLint (CLint,u) was calculated using Eq. (6).(6) CLint,u=CLint/fu

[6] = CLint in cryopreserved human hepatocyte suspensions; format: in vitro ADME; details: both sexes, pH 7.4, mixed sex
Method: as §1, §2, §3

[7] = tested on: MOLM-13 (human FLT3-ITD positive AML); design: method as in Bavetsias et al., 2012; details: ref Bavetsias et al., 2012; cited from earlier work

For `Cc1nn(C)cc1-c1nc2c(N3CCN(Cc4ccc(Cl)cc4)CC3)c(Cl)cnc2[nH]1` [CCT241736, 6-Chloro-7-(4-(4-chlorobenzyl)piperazin-1-yl)-2-(1,3-dimethyl-1Hpyrazol-4-yl)-3H-imidazo[4,5-b] pyridine], the clearance [1] is given as 4.57 mL/min/kg, the efflux (Caco-2; Caco-2) is given as “no evidence of efflux” and the Caco-2 permeability (Caco-2) is given as 18.6 ×10⁻⁶ cm/s. For the same molecule, the hepatocyte CLint at 1 μM ([2]; pH 7.4, female) was 3.4 µL/min/1e6 cells, the hepatocyte CLint at 1 μM ([2]; pH 7.4, male) was 7 µL/min/1e6 cells and the fraction unbound at 4 h, 1 μM [3] was 0.0018. The IC50 (CYP3A4) was > 10 µM, the “biomarker modulation (histone H-3 and STAT5 phosphorylation)” value [4] was “biomarker modulation” and the IC50 (CYP2C9) was > 10 µM. The IC50 (CYP1A2) was > 10 µM, the fraction unbound at 4 h, 1 μM [5] was 0.0094 and the IC50 (CYP2D6) was […]. For the same molecule, the “scaled CLint,u in rCYP3A4” value (rCYP3A4) was 4078 μl/min/mg microsomal protein, the hepatocyte CLint at 1 μM [6] was < 1 µL/min/1e6 cells and the anti-proliferative activity [7] was “anti-proliferative activity”.
